≈ marks a conversion by molar mass, not a printed value.
Legend:
Assay type in all cases: functional
[1] = tested on: Enterococcus faecalis; experiment: Antimicrobial activity against Enterococcus faecalis JH2-2 harboring nucleotides at position 2576 in rrlA 2576T, rrlB 2576G, rrlC 2576G/T and rrlD 2576T after 6, 8 passages under Linezolid selective pressure by agar dilution method
[2] = tested on: Enterococcus faecalis; experiment: Antimicrobial activity against Enterococcus faecalis JH2-2 harboring nucleotides at position 2576 in rrlA 2576T, rrlB 2576G, rrlC 2576T and rrlD 2576T after 9, 10, 11 passages under Linezolid selective pressure by agar dilution method
[3] = tested on: Enterococcus faecalis; experiment: Antimicrobial activity against recombination-deficient Enterococcus faecalis JH2-2 recA harboring nucleotides at position 2576 in rrlA 2576T, rrlB 2576G, rrlC 2576T and rrlD 2576T after 10, 11 passages under Linezolid selective pressure by agar dilution method

CC(=O)NC[C@H]1CN(c2ccc(N3CCOCC3)c(F)c2)C(=O)O1 [LINEZOLID]
MIC [1]: 32 µg/mL (≈ 94.9 µM) | MIC [2]: 64 µg/mL (≈ 190 µM) | MIC [3]: 32 µg/mL

Source: ChEMBL document CHEMBL1649577, “Influence of recombination on development of mutational resistance to linezolid in Enterococcus faecalis JH2-2” (2009)
